Experimental findings from ChEMBL document CHEMBL4033775, “Natural-Products-Inspired Use of the gem-Dimethyl Group in Medicinal Chemistry” (J Med Chem, 2018) are described below.

≈ marks a conversion by molar mass, not a printed value.

In series [1] the test system is Human immunodeficiency virus. Nature of the series: Antiviral activity against Human immunodeficiency virus assessed as reduction in maturation. The format is functional. The conditions noted are these: Human immunodeficiency virus 1.
In the next series the target is Interstitial collagenase (Homo sapiens, UniProt P03956). Nature of the series: Inhibition of human interstitial recombinant N-terminal MMP1 expressed in Escherichia coli BL21(DE3) using Mca-Pro-Leu-Gly-Leu-Dpa-Ala-Arg-NH2 as substrate after 20 to 30 mins by spectrofluorimetric analysis.
In the next series the target is T1, Matrilysin (Homo sapiens, UniProt P09237).
T1 sequence (P09237 whole entry): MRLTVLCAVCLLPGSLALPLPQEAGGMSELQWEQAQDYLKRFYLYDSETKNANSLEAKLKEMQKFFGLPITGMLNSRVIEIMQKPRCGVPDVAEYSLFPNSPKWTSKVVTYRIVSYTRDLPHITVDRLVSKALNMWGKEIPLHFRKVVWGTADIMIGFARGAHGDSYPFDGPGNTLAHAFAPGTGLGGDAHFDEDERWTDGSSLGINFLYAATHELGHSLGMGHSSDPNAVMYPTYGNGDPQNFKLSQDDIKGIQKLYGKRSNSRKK
Nature of the series: Inhibition of MMP7 (unknown origin) expressed in Escherichia coli BL21(DE3) using Mca-Pro-Leu-Gly-Leu-Dpa-Ala-Arg-NH2 as substrate after 20 to 30 mins by spectrofluorimetric analysis.

For series [2], the target named is Matrix metalloproteinase-9 (Homo sapiens, UniProt P14780). Nature of the series: Inhibition of MMP9 (unknown origin) expressed in Escherichia coli BL21(DE3) using Mca-Pro-Leu-Gly-Leu-Dpa-Ala-Arg-NH2 as substrate after 20 to 30 mins by spectrofluorimetric analysis.
A further series deals with Collagenase 3 (Homo sapiens, UniProt P45452). Nature of the series: Inhibition of MMP13 (unknown origin) expressed in Escherichia coli BL21(DE3) using Mca-Pro-Leu-Gly-Leu-Dpa-Ala-Arg-NH2 as substrate after 20 to 30 mins by spectrofluorimetric analysis.
Series [3] deals with 72 kDa type IV collagenase (Homo sapiens, UniProt P08253). Nature of the series: Inhibition of MMP2 (unknown origin) expressed in Escherichia coli BL21(DE3) using Mca-Pro-Leu-Gly-Leu-Dpa-Ala-Arg-NH2 as substrate after 20 to 30 mins by spectrofluorimetric analysis.
For series [4], the system named is Human immunodeficiency virus 1. Nature of the series: Antiviral activity against HIV1 3B infected in human H9 cells after 4 days by ELISA. Format: functional, cell-based. The note with it: Human immunodeficiency virus 1, 3B, H9, 96 h.
The test system of another series is A549. Nature of the series: Cytotoxicity against human A549 cells. The format is functional, cell-based.
Series [5] can be described thus: Aqueous solubility of the compound at physiological pH. The format is physicochemical. The conditions noted are these: buffer.

72 kDa type IV collagenase, sequence (P08253 whole entry): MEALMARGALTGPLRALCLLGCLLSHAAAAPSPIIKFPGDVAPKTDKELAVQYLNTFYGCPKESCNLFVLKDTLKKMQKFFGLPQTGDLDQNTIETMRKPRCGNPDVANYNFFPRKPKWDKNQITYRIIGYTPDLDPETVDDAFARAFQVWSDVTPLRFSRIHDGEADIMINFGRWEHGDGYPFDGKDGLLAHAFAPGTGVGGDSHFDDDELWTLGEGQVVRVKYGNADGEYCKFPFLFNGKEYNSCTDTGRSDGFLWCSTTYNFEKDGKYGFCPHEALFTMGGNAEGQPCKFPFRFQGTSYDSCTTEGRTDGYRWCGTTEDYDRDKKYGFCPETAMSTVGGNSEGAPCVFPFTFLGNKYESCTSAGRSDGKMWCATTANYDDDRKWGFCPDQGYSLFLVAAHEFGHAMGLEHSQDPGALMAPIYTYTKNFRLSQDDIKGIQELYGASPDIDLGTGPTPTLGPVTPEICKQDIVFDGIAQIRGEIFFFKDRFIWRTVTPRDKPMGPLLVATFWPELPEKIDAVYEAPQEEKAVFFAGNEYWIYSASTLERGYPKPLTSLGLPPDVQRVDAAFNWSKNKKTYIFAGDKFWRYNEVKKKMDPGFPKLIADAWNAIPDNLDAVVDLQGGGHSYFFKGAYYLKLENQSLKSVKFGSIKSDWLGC
Matrix metalloproteinase-9, sequence (P14780 whole entry): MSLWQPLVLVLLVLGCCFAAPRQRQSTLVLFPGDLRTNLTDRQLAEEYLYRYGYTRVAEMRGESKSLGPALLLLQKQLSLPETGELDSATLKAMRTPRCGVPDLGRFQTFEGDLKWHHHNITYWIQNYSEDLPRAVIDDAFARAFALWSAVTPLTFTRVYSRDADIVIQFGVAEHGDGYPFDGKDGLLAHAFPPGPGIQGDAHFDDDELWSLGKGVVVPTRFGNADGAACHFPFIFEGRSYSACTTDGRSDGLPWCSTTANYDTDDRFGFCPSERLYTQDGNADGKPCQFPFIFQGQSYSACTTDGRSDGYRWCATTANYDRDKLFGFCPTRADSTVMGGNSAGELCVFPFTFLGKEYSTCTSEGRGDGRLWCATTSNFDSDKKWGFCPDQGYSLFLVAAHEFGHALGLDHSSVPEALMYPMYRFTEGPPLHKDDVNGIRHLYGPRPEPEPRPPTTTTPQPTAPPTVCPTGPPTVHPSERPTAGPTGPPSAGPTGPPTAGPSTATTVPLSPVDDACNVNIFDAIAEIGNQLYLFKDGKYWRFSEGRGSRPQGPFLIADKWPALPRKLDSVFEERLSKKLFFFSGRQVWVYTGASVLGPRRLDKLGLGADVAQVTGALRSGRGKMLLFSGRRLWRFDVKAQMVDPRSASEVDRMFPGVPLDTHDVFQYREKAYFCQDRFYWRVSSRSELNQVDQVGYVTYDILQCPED
Interstitial collagenase, sequence (P03956 whole entry): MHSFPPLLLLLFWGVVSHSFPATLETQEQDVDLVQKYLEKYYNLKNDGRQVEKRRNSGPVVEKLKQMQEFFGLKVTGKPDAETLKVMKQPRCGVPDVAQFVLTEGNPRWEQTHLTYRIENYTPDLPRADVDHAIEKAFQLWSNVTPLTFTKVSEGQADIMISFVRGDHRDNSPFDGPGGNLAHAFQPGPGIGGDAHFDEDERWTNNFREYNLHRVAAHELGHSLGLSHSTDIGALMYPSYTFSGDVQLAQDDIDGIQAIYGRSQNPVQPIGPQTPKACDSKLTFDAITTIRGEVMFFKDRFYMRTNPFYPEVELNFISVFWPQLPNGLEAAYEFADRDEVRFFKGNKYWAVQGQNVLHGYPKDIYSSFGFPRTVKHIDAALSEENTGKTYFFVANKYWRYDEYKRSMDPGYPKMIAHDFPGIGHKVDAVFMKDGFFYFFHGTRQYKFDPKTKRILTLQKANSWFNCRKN

By EC50 is commonly meant the concentration at which the effect is half-maximal. As to `C=C(C)[C@@H]1CC[C@]2(C(=O)O)CC[C@]3(C)[C@H](CC[C@@H]4[C@@]5(C)CC[C@H](OC(=O)CC(C)(C)C(=O)O)C(C)(C)[C@@H]5CC[C@]43C)[C@@H]12` [BEVIRIMAT], the EC50 in series [1] is 10.3 nM.
As a reminder, the IC50 is the concentration needed to halve the response being measured. Take `COc1ccc(S(=O)(=O)N2CCSC(C)(C)C2C(=O)NO)cc1` (centres undefined): the IC50 on Interstitial collagenase was 0.4 nM; against Matrilysin, 23 nM; in series [2], 0.9 nM; on Collagenase 3, 1 nM; in [3], 1.4 nM.
For `CC(=O)O[C@@H]1[C@H](OC(=O)CC(C)C)c2c(ccc3ccc(=O)oc23)OC1(C)C` [SUKSDORFIN], in [4], the IC50 was 2600 nM.
Consider `CO[C@H]1C(=O)[C@]2(C)[C@@H](OC)C[C@H]3OC[C@@]3(OC(C)=O)[C@H]2[C@H](OC(=O)c2ccccc2)[C@]2(O)C[C@H](OC(=O)[C@H](O)[C@@H](NC(=O)OC(C)(C)C)c3ccccc3)C(C)=C1C2(C)C` [CABAZITAXEL], for which half-maximal inhibition with A549 (IC50) was put at 1.48 nM.
As usually defined, the solubility is the concentration that dissolves in the medium under given conditions. Compound `COc1ccc(S(=O)(=O)N2CCCSC(C)(C)[C@@H]2C(=O)NO)cc1` returned a solubility in [5] of 800 µg/mL (≈ 2140 µM).
